System: ICAM-1
Assay: MARINE study (fasting TG ≧500 mg/dL), ICAM-1
Format: in vivo, human
Details: MARINE ITT, week 12
Excerpt: Parameters (a)-(y) can be measured in accordance with any clinically acceptable methodology. For example, triglycerides, total cholesterol, HDL-C and fasting blood sugar can be sample from serum and analyzed using standard photometry techniques. VLDL-TG, LDL-C and VLDL-C can be calculated or determined using serum lipoprotein fractionation by preparative ultracentrifugation and subsequent quantitative analysis by refractometry or by analytic ultracentrifugal methodology. Apo A1, Apo B and hsCRP can be determined from serum using standard nephelometry techniques. Lipoprotein (a) can be determined from serum using standard turbidimetric immunoassay techniques. LDL particle number and particle size can be determined using nuclear magnetic resonance (NMR) spectrometry. Remnants lipoproteins and LDL-phospholipase A2 can be determined from EDTA plasma or serum and serum, respectively, using enzymatic immunoseparation techniques. Oxidized LDL, intercellular adhesion molecule-1 and interleukin-2 levels can be determined from serum using standard enzyme immunoassay techniques. These techniques are described in detail in standard textbooks, for example Tietz Fundamentals of Clinical Chemistry, 6th Ed. (Burtis, Ashwood and Borter Eds.), WB Saunders Company. […]

Structure (SMILES): CC/C=C\C/C=C\C/C=C\C/C=C\C/C=C\CCCC(=O)OCC [AMR101, all-cis eicosa-5,8,11,14,17-pentaenoic acid ethyl ester]
- ICAM-1 change from baseline (median) (2 g/day): −0.4%
- ICAM-1 change from baseline (median) (4 g/day): −0.9%
